# Measurements taken from PMC8162404, “Proteomimetic surface fragments distinguish targets by function” (Chemical Science, 2020).
# Read-outs that look alike come from different tables or passages of the source.
# Experiments:
# Assay in all cases: Pull-down assay with immobilized protein and LSM libraries
# CaM = target: T1, CaM (Bos taurus, UniProt P62157); format: binding, bovine; details: 1:2 stoichiometry assumed, read-out: Surface mapping KD (apparent)
# T1 construct: made in house; host or cells: E. coli BL21 (DE3)
# Procedure, shortened: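 CaM buffer was 20 mM HEPES pH 7.4, 150 mM NaCl, 5 mM CaCl2. LSM sublibrary members ([…]) incubated 30 min, RT, with equimolar His-tagged protein on Co-NTA resin. HPLC-MS measured unbound probes; bound fraction relative to resin-only background gave dissociation constants.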
# Gal-1 = target: T2, Gal-1 (Homo sapiens, UniProt P09382); format: binding; details: 1:1 binding assumed, read-out: Surface mapping KD (apparent)
# T2 construct: made in house; host or cells: E. coli BL21(DE3)
# T2 sequence (P09382 whole entry): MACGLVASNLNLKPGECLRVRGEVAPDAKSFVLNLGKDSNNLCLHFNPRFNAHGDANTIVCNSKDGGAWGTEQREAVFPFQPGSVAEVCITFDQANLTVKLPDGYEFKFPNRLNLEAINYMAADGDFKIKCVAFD
# Procedure, shortened: (§1)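 Buffers were HEPES pH 7.4 with 150 mM NaCl, plus 1 mM TCEP and 1 mM CaCl2 (50 mM HEPES) for S100A4 and S100B, 1 mM TCEP for Gal-1, and no additive for RecQ-WH. Immobilized protein at 64 µM was equilibrated 30 min with the LSM sublibrary, and unbound probes were measured by LC-MS.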
# S100A4 = target: T3, S100A4 (Homo sapiens, UniProt P26447); format: binding; details: 1:1 binding assumed, read-out: Surface mapping KD (apparent)
# T3 construct: made in house; host or cells: Escherichia coli BL21(DE3)
# T3 sequence (P26447 whole entry): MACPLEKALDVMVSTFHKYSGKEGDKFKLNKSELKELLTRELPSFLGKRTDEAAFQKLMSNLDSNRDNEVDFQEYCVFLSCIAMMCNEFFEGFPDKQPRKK
# Procedure, shortened: as §1
# S100B = target: T4, S100B (Homo sapiens, UniProt P04271); format: binding; details: 1:1 binding assumed, read-out: Surface mapping KD (apparent)
# T4 construct: made in house; host or cells: Escherichia coli BL21(DE3)
# T4 sequence (P04271 1-92): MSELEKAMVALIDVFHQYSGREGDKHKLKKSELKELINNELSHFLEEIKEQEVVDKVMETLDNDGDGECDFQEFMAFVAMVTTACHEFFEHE
# Procedure, shortened: as §1
SMILES,Kd (CaM; H12 library) [µM],Kd (Gal-1; H12 library) [µM],Kd (S100A4; H12 library) [µM],Kd (S100B; H12 library) [µM],Kd (CaM; H14 library) [µM],Kd (Gal-1; H14 library) [µM],Kd (S100A4; H14 library) [µM],Kd (S100B; H14 library) [µM]
NC(=O)[C@H]1CCC[C@@H]1NC(=O)[C@H]1CCC[C@@H]1NC(=O)C[C@H](Cc1c[nH]c2ccccc12)NC(=O)[C@H]1CCC[C@@H]1NC(=O)[C@H]1CCC[C@@H]1NC(=O)C[C@H](Cc1ccccc1)NC(=O)[C@H]1CCC[C@@H]1NC(=O)[C@H]1CCC[C@@H]1N [H12 FW],134,136,75,10,,,,
NCCCC[C@@H](CC(=O)N[C@H]1CCC[C@@H]1C(=O)N[C@H]1CCC[C@@H]1C(=O)N[C@H](CC(=O)N[C@H]1CCC[C@@H]1C(=O)N[C@H]1CCC[C@@H]1C(N)=O)Cc1ccccc1)NC(=O)[C@H]1CCC[C@@H]1NC(=O)[C@H]1CCC[C@@H]1N [H12 KF],239,292,416,66,,,,
NC(=O)[C@H]1CCC[C@@H]1NC(=O)[C@H]1CCC[C@@H]1NC(=O)C[C@H](Cc1c[nH]c2ccccc12)NC(=O)[C@H]1CCC[C@@H]1NC(=O)[C@H]1CCC[C@@H]1NC(=O)C[C@H](Cc1c[nH]c2ccccc12)NC(=O)[C@H]1CCC[C@@H]1NC(=O)[C@H]1CCC[C@@H]1N [H12 WW],413,151,56,8,,,,
CC[C@H](C)[C@@H](CC(=O)N[C@H]1CCC[C@@H]1C(=O)N[C@H]1CCC[C@@H]1C(=O)N[C@H](CC(=O)N[C@H]1CCC[C@@H]1C(=O)N[C@H]1CCC[C@@H]1C(N)=O)C(C)C)NC(=O)[C@H]1CCC[C@@H]1NC(=O)[C@H]1CCC[C@@H]1N [H12 IV],270,463,373,57,,,,
CC(C)C[C@@H](CC(=O)N[C@H]1CCC[C@@H]1C(=O)N[C@H]1CCC[C@@H]1C(N)=O)NC(=O)[C@H]1CCC[C@@H]1NC(=O)[C@H]1CCC[C@@H]1NC(=O)C[C@H](CCCCN)NC(=O)[C@H]1CCC[C@@H]1NC(=O)[C@H]1CCC[C@@H]1N [H12 KL],324,316,89,68,,,,
CC(C)C[C@@H](CC(=O)N[C@H]1CCCC[C@@H]1C(=O)N[C@H]1CCCC[C@@H]1C(=O)N[C@@H](CCC(N)=O)CC(=O)N[C@H]1CCCC[C@@H]1C(N)=O)NC(=O)[C@H]1CCCC[C@@H]1N [H14 LQ],,,,,275,343,304,435
CC[C@H](C)[C@@H](CC(=O)N[C@H]1CCC[C@@H]1C(=O)N[C@H]1CCC[C@@H]1C(N)=O)NC(=O)[C@H]1CCC[C@@H]1NC(=O)[C@H]1CCC[C@@H]1NC(=O)C[C@H](CCSC)NC(=O)[C@H]1CCC[C@@H]1NC(=O)[C@H]1CCC[C@@H]1N [H12 MI],101,281,358,54,,,,
CC[C@H](C)[C@@H](CC(=O)N[C@H]1CCC[C@@H]1C(=O)N[C@H]1CCC[C@@H]1C(=O)N[C@@H](CCSC)CC(=O)N[C@H]1CCC[C@@H]1C(=O)N[C@H]1CCC[C@@H]1C(N)=O)NC(=O)[C@H]1CCC[C@@H]1NC(=O)[C@H]1CCC[C@@H]1N [H12 IM],211,378,381,74,,,,
CSCC[C@@H](CC(=O)N[C@H]1CCC[C@@H]1C(=O)N[C@H]1CCC[C@@H]1C(N)=O)NC(=O)[C@H]1CCC[C@@H]1NC(=O)[C@H]1CCC[C@@H]1NC(=O)C[C@H](CC(C)C)NC(=O)[C@H]1CCC[C@@H]1NC(=O)[C@H]1CCC[C@@H]1N [H12 LM],211,378,381,74,,,,
CC(C)C[C@@H](CC(=O)N[C@H]1CCC[C@@H]1C(=O)N[C@H]1CCC[C@@H]1C(N)=O)NC(=O)[C@H]1CCC[C@@H]1NC(=O)[C@H]1CCC[C@@H]1NC(=O)C[C@H](Cc1ccccc1)NC(=O)[C@H]1CCC[C@@H]1NC(=O)[C@H]1CCC[C@@H]1N [H12 FL],205,114,83,14,,,,
CC(C)C[C@@H](CC(=O)N[C@H]1CCC[C@@H]1C(=O)N[C@H]1CCC[C@@H]1C(N)=O)NC(=O)[C@H]1CCC[C@@H]1NC(=O)[C@H]1CCC[C@@H]1NC(=O)C[C@H](CCCNC(=N)N)NC(=O)[C@H]1CCC[C@@H]1NC(=O)[C@H]1CCC[C@@H]1N [H12 RL],252,194,245,56,,,,

# More lines, now with the values ahead:
Kd (CaM; H12 library) [µM],Kd (Gal-1; H12 library) [µM],Kd (S100A4; H12 library) [µM],Kd (S100B; H12 library) [µM],Kd (CaM; H14 library) [µM],Kd (Gal-1; H14 library) [µM],Kd (S100A4; H14 library) [µM],Kd (S100B; H14 library) [µM],SMILES
21,130,125,14,,,,,NC(=O)[C@H]1CCC[C@@H]1NC(=O)[C@H]1CCC[C@@H]1NC(=O)C[C@H](Cc1ccccc1)NC(=O)[C@H]1CCC[C@@H]1NC(=O)[C@H]1CCC[C@@H]1NC(=O)C[C@H](Cc1ccccc1)NC(=O)[C@H]1CCC[C@@H]1NC(=O)[C@H]1CCC[C@@H]1N [H12 FF]
56,346,184,31,,,,,CC(C)[C@@H](CC(=O)N[C@H]1CCC[C@@H]1C(=O)N[C@H]1CCC[C@@H]1C(=O)N[C@H](CC(=O)N[C@H]1CCC[C@@H]1C(=O)N[C@H]1CCC[C@@H]1C(N)=O)Cc1c[nH]c2ccccc12)NC(=O)[C@H]1CCC[C@@H]1NC(=O)[C@H]1CCC[C@@H]1N [H12 VW]
67,395,79,25,,,,,CC[C@H](C)[C@@H](CC(=O)N[C@H]1CCC[C@@H]1C(=O)N[C@H]1CCC[C@@H]1C(N)=O)NC(=O)[C@H]1CCC[C@@H]1NC(=O)[C@H]1CCC[C@@H]1NC(=O)C[C@@H](NC(=O)[C@H]1CCC[C@@H]1NC(=O)[C@H]1CCC[C@@H]1N)[C@@H](C)CC [H12 II]
27,200,105,21,,,,,CC(C)C[C@@H](CC(=O)N[C@H]1CCC[C@@H]1C(=O)N[C@H]1CCC[C@@H]1C(N)=O)NC(=O)[C@H]1CCC[C@@H]1NC(=O)[C@H]1CCC[C@@H]1NC(=O)C[C@H](Cc1c[nH]c2ccccc12)NC(=O)[C@H]1CCC[C@@H]1NC(=O)[C@H]1CCC[C@@H]1N [H12 WL]
19,368,28,11,,,,,CC[C@H](C)[C@@H](CC(=O)N[C@H]1CCC[C@@H]1C(=O)N[C@H]1CCC[C@@H]1C(=O)N[C@H](CC(=O)N[C@H]1CCC[C@@H]1C(=O)N[C@H]1CCC[C@@H]1C(N)=O)Cc1c[nH]c2ccccc12)NC(=O)[C@H]1CCC[C@@H]1NC(=O)[C@H]1CCC[C@@H]1N [H12 IW]
28,347,100,56,,,,,CC(C)C[C@@H](CC(=O)N[C@H]1CCC[C@@H]1C(=O)N[C@H]1CCC[C@@H]1C(=O)N[C@H](CC(=O)N[C@H]1CCC[C@@H]1C(=O)N[C@H]1CCC[C@@H]1C(N)=O)Cc1ccc(O)cc1)NC(=O)[C@H]1CCC[C@@H]1NC(=O)[C@H]1CCC[C@@H]1N [H12 LY]
28,347,100,56,,,,,CC[C@H](C)[C@@H](CC(=O)N[C@H]1CCC[C@@H]1C(=O)N[C@H]1CCC[C@@H]1C(=O)N[C@H](CC(=O)N[C@H]1CCC[C@@H]1C(=O)N[C@H]1CCC[C@@H]1C(N)=O)Cc1ccc(O)cc1)NC(=O)[C@H]1CCC[C@@H]1NC(=O)[C@H]1CCC[C@@H]1N [H12 IY]
19,126,95,25,,,,,N=C(N)NCCC[C@@H](CC(=O)N[C@H]1CCC[C@@H]1C(=O)N[C@H]1CCC[C@@H]1C(=O)N[C@H](CC(=O)N[C@H]1CCC[C@@H]1C(=O)N[C@H]1CCC[C@@H]1C(N)=O)Cc1c[nH]c2ccccc12)NC(=O)[C@H]1CCC[C@@H]1NC(=O)[C@H]1CCC[C@@H]1N [H12 RW]
15,167,126,13,,,,,CC[C@H](C)[C@@H](CC(=O)N[C@H]1CCC[C@@H]1C(=O)N[C@H]1CCC[C@@H]1C(N)=O)NC(=O)[C@H]1CCC[C@@H]1NC(=O)[C@H]1CCC[C@@H]1NC(=O)C[C@H](Cc1ccccc1)NC(=O)[C@H]1CCC[C@@H]1NC(=O)[C@H]1CCC[C@@H]1N [H12 FI]
96,202,140,40,,,,,N=C(N)NCCC[C@@H](CC(=O)N[C@H]1CCC[C@@H]1C(=O)N[C@H]1CCC[C@@H]1C(=O)N[C@H](CC(=O)N[C@H]1CCC[C@@H]1C(=O)N[C@H]1CCC[C@@H]1C(N)=O)Cc1ccccc1)NC(=O)[C@H]1CCC[C@@H]1NC(=O)[C@H]1CCC[C@@H]1N [H12 RF]
19,368,28,11,,,,,CC(C)C[C@@H](CC(=O)N[C@H]1CCC[C@@H]1C(=O)N[C@H]1CCC[C@@H]1C(=O)N[C@H](CC(=O)N[C@H]1CCC[C@@H]1C(=O)N[C@H]1CCC[C@@H]1C(N)=O)Cc1c[nH]c2ccccc12)NC(=O)[C@H]1CCC[C@@H]1NC(=O)[C@H]1CCC[C@@H]1N [H12 LW]
28,376,32,22,,,,,CC(C)C[C@@H](CC(=O)N[C@H]1CCC[C@@H]1C(=O)N[C@H]1CCC[C@@H]1C(=O)N[C@H](CC(=O)N[C@H]1CCC[C@@H]1C(=O)N[C@H]1CCC[C@@H]1C(N)=O)Cc1ccccc1)NC(=O)[C@H]1CCC[C@@H]1NC(=O)[C@H]1CCC[C@@H]1N [H12 LF]
